Experimental findings from patent US11174253B2, “Compound and pharmaceutical composition containing the same” (ALPHALA CO., LTD., priority 2017, dated 2021) are described below.

Type in all cases: cell-based
Experiment [1] relates to NCI-H460 human lung cancer cell line. Put plainly: MTS cell viability assay (NCI-60 methodology), GI50/LC50, NCI-H460. To be noted: 48 h, NCI-H460 cells, 2 days incubation with compound. The procedure:
(§1) The number of treated cells was determined by GE InCell 2200 system, and treated cells were stained with Hoechst 33342 which can reveal the remained nucleus in culture plate. The proportion of survival cells then were calculated with the ratio of treated/non-treated cells. The growth inhibition/cytotoxic effect of selected compounds were evaluated by the following protocol of NCI-60 screening platform. The human tumor cell lines are plating on a 96 well plate in a fixed density 24 hr prior compound treatment. Compounds with multiple concentrations are then added into each well for further 48 hr incubation. Cell viability is assessed by MTS method and the potency of compound is represented by GI50 and LC50 calculated by MTS result.
(§2) The cell viability measurement is based on the NCI-60 screening methodology (Nat. Rev. Cancer 6, 813-823, 2006). Briefly, cells are inoculated into 96-well plates at the optimal plating density. After 24 h, one of the two plates for each cell line is processed to determine a time zero cell viability (Tz) by MTS assay (Promega). Compounds are added over a 2-fold serial dilution to provide a total five drug concentrations plus DMSO control. Plates are incubated for a further 2 days, then measured cell viability by MTS assay [control growth (C) and test growth in the presence of drug at the five concentration levels (Ti)]. Growth inhibition of 50% (GI50) is calculated from [(Ti−Tz)/(C−Tz)]×100=50, which is the drug concentration resulting in a 50% reduction of control cells during the drug incubation. The LC50 is calculated from [(Ti−Tz)/Tz]×100=−50, which is the drug concentration resulting in a 50% reduction at the end of the drug treatment as compared to that at the beginning.
(§3) Herein, Hep3B refers to hepatocellular carcinoma cell line, SW480 refers to colon adenocarcinoma cell line, and NCI-H460 refers to human lung cancer cell line.
For orientation: Formazan colour is commonly taken as a measure of viable cells.

Experiment [2] deals with Hep3B hepatocellular carcinoma cell line. Put plainly: MTS cell viability assay (NCI-60 methodology), GI50/LC50, Hep3B. As to conditions: Homo sapiens, 48 h, Hep3B cells, 2 days incubation with compound. The procedure: as §1, §2, §3
Experiment [3] concerns SW480 colon adenocarcinoma cell line. Put plainly: MTS cell viability assay (NCI-60 methodology), GI50/LC50, SW480. As to conditions: Homo sapiens, 48 h, SW480 cells, 2 days incubation with compound. The procedure:
as §1, §2, §3

Experiment [4] relates to hepatocellular carcinoma cell line Hep3B. Put plainly: Growth inhibition of Hep3B cells, 48 hr treatment, Hoechst 33342 nucleus count (GE InCell 2200). As to conditions: Homo sapiens. Put shortly:
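Compound exposure lasted 48 hr at 37° C, 5% CO2. Surviving nuclei were counted after Hoechst 33342 staining, and survival was expressed as the treated/non-treated cell number ratio, including the ratio at 10 μM compound.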

The mark [5] stands for this setting: Table 1, ratio of number of tumor cells treated with 10 μM compound to non-treated cells.
Where [6] appears, read: Table 5, ratio of number of tumor cells treated with 10 μM compound to non-treated cells.
Setting [7] is: Table 6, ratio of number of tumor cells treated with 10 μM compound to non-treated cells.

As a reminder, the GI50 is the concentration that inhibits growth by half. In general, LC50 refers to the concentration that kills 50% of the test population. In general, viability refers to a per cent measure of how many cells are alive, often set against a control. For `CCOc1ccc(-c2nnc(NC(=O)Cc3ccc4nc(N)sc4c3)s2)cc1` [Compound 1-2, 2-(2-aminobenzo[d]thiazol-6-yl)-N-(5-(4-ethoxyphenyl)-1,3,4-thiadiazol-2-yl)acetamide], in experiment [1], the GI50 turned out to be 0.86 µM and the LC50 (concentration giving 50% net cell loss versus time zero, NCI-60 definition) worked out at 1.24 µM. For the same compound, in experiment [2], the concentration for 50% growth inhibition (GI50) amounted to 0.16 µM and the LC50 worked out at 0.48 µM. Also, in experiment [3], the GI50 stood at 3.55 µM and the LC50 (NCI-60 lethal concentration, 50% net cell loss vs time zero) turned out to be 8.93 µM. For the same compound, the viability at 10 µM in experiment [4] (setting [5]) amounted to 61%.
Turning to `Nc1nc2ccc(CC(=O)Nc3nnc(-c4ccc(Br)cc4)s3)cc2s1` [Compound 1-7, 2-(2-aminobenzo[d]thiazol-6-yl)-N-(5-(4-bromophenyl)-1,3,4-thiadiazol-2-yl)acetamide], in experiment [2], the GI50 was 3.17 µM and the LC50 came to 9.4 µM. Moreover, in experiment [3], the GI50 was 7.7 µM.
For `CCCOc1ccccc1-c1nnc(NC(=O)Cc2ccc3nc(N)sc3c2)s1` [Compound 1-10, 2-(2-aminobenzo[d]thiazol-6-yl)-N-(5-(2-propoxyphenyl)-1,3,4-thiadiazol-2-yl)acetamide], in experiment [2], the GI50 came out at 0.17 µM and the LC50 amounted to 0.55 µM. In experiment [3], the GI50 was determined as 0.9 µM and the LC50 (NCI-60 lethal concentration, 50% net cell loss vs time zero) was 5.17 µM. The viability at 10 µM in experiment [4] (setting [5]) was 61%.
For `CC(C)Oc1ccccc1-c1nnc(NC(=O)Cc2ccc3nc(N)sc3c2)s1` [Compound 1-15, 2-(2-aminobenzo[d]thiazol-6-yl)-N-(5-(2-isopropoxyphenyl)-1,3,4-thiadiazol-2-yl)acetamide], in experiment [2], the GI50 worked out at 0.17 µM and the LC50 came to 0.5 µM. Moreover, in experiment [3], the GI50 was 0.62 µM. Also, in experiment [4] (setting [5]), the viability at 10 µM is 56%.
Taken in the same sequence, the figures for `CCC(CC)Oc1ccc(-c2nnc(NC(=O)Cc3ccc4nc(N)sc4c3)s2)cc1` [Compound 1-16, 2-(2-aminobenzo[d]thiazol-6-yl)-N-(5-(4-(pentan-3-yloxy)phenyl)-1,3,4-thiadiazol-2-yl)acetamide] were 2.83 µM, 4.34 µM, 7.26 µM and 84%.
The matching figures for `CCCOc1ccc(-c2nnc(NC(=O)Cc3ccc4nc(N)sc4c3)s2)cc1` [Compound 1-17, 2-(2-aminobenzo[d]thiazol-6-yl)-N-(5-(4-propoxyphenyl)-1,3,4-thiadiazol-2-yl)acetamide]: 0.6 µM, 0.89 µM, 1.81 µM and 82%.
Taken in the same sequence, the figures for `CCCCOc1ccccc1-c1nnc(NC(=O)Cc2ccc3nc(N)sc3c2)s1` [Compound 1-20, 2-(2-aminobenzo[d]thiazol-6-yl)-N-(5-(2-butoxyphenyl)-1,3,4-thiadiazol-2-yl)acetamide] were 0.21 µM, 0.63 µM, 1.15 µM and 81%.
`CCOc1ccc(-c2nnc(NC(=O)Cc3ccc4nc(N)sc4c3)s2)c(OCCN(C)C)c1` [Compound 1-29, 2-(2-aminobenzo[d]thiazol-6-yl)-N-(5-(2-(2-(dimethylamino)ethoxy)-4-ethoxyphenyl)-1,3,4-thiadiazol-2-yl)acetamide]: the GI50 in experiment [1] is 5.2 µM; in experiment [2] it was 0.2 µM; in experiment [3], 3.34 µM. In experiment [2], the LC50 is 1.1 µM.
Turning to `CCOc1ccc(-c2nnc(NC(=O)Cc3ccc4nc(N)sc4c3)s2)c(OCCOC)c1` [Compound 1-32, 2-(2-aminobenzo[d]thiazol-6-yl)-N-(5-(4-ethoxy-2-(2-methoxyethoxy)phenyl)-1,3,4-thiadiazol-2-yl)acetamide], in experiment [1], the GI50 came to 0.14 µM and the LC50 (concentration giving 50% net cell loss versus time zero, NCI-60 definition) stood at 0.6 µM. Moreover, in experiment [2], the GI50 was determined as 0.17 µM and the 50% lethal concentration (LC50) stood at 0.54 µM. For the same compound, in experiment [3], the GI50 was determined as 0.23 µM and the LC50 (NCI-60 lethal concentration, 50% net cell loss vs time zero) was found to be 0.69 µM.
For the compound `CCOc1cc(OCC)c(-c2nnc(NC(=O)Cc3ccc4nc(N)sc4c3)s2)cn1` [Compound 1-35, 2-(2-aminobenzo[d]thiazol-6-yl)-N-(5-(4,6-diethoxypyridin-3-yl)-1,3,4-thiadiazol-2-yl)acetamide], in experiment [1], the GI50 worked out at 1.42 µM. Also, in experiment [2], the GI50 was found to be 0.55 µM and the 50% lethal concentration (LC50) turned out to be 3.68 µM. The viability at 10 µM in experiment [4] (setting [5]) was determined as 42%.
Consider `Cc1ccc(-c2nc(NC(=O)Cc3ccc4nc(N)sc4c3)sc2-c2ccc(Br)cc2)cc1` [Compound 3-3, 2-(2-aminobenzo[d]thiazol-6-yl)-N-(5-(4-bromophenyl)-4-(p-tolyl)thiazol-2-yl)acetamide], for which the GI50 in experiment [2] turned out to be 1.14 µM; in experiment [3] it was 7.97 µM. Moreover, the viability at 10 µM in experiment [4] (Table 3, ratio of number of tumor cells treated with 10 μM compound to non-treated cells) is 71%.
Regarding `Cc1ccc(-c2nc(NC(=O)Cc3ccc4nc(N)sc4c3)sc2-c2ccc(F)cc2)cc1` [Compound 3-4, 2-(2-aminobenzo[d]thiazol-6-yl)-N-(5-(4-fluorophenyl)-4-(p-tolyl)thiazol-2-yl)acetamide], the GI50 in experiment [1] turned out to be 3.02 µM; in experiment [2], 2.07 µM.
As to `CCOc1ccc(-c2nc(NC(=O)Cc3ccc4nc(N)sc4c3)sc2-c2ccc(F)cc2)cc1` [Compound 3-9, 2-(2-aminobenzo[d]thiazol-6-yl)-N-(4-(4-ethoxyphenyl)-5-(4-fluorophenyl)thiazol-2-yl)acetamide], the GI50 in experiment [1] amounted to 2.39 µM; in experiment [2] it was 2.27 µM; in experiment [3] it was 8.95 µM.
In the case of `CCCOc1ccc(-c2nc(NC(=O)c3ccc([N+](=O)[O-])s3)sc2Oc2ccc(OC(F)(F)F)cc2)cc1` [Compound 5-8, 5-nitro-N-(4-(4-propoxyphenyl)-5-(4-(trifluoromethoxy)phenoxy)thiazol-2-yl)thiophene-2-carboxamide], in experiment [1], the GI50 is 3.01 µM and the LC50 (concentration giving 50% net cell loss versus time zero, NCI-60 definition) stood at 4.66 µM. Moreover, the GI50 in experiment [2] is 3.43 µM. Also, the viability at 10 µM in experiment [4] (setting [6]) was 24%.
Taken in the same sequence, the figures for `CCCOc1ccc(-c2nc(NC(=O)c3ccc([N+](=O)[O-])s3)sc2Oc2ccccc2)cc1` [Compound 5-9, 5-nitro-N-(5-phenoxy-4-(4-propoxyphenyl)thiazol-2-yl)thiophene-2-carboxamide] were 1.11 µM, 2.86 µM, 2.43 µM and 32%.
The matching figures for `CC(C)Oc1ccc(-c2nc(NC(=O)c3ccc([N+](=O)[O-])s3)sc2Oc2ccccc2)cc1` [Compound 5-10, N-(4-(4-isopropoxyphenyl)-5-phenoxythiazol-2-yl)-5-nitrothiophene-2-carboxamide]: 0.88 µM, 5.31 µM, 2.53 µM and 29%.
In the case of `O=C(Nc1nc(-c2ccc(Br)cc2)c(Oc2ccc(OC(F)(F)F)cc2)s1)c1ccc([N+](=O)[O-])s1` [Compound 5-18, N-(4-(4-bromophenyl)-5-(4-(trifluoromethoxy)phenoxy)thiazol-2-yl)-5-nitrothiophene-2-carboxamide], the 50% growth inhibitory concentration (GI50) in experiment [1] was 6.4 µM. In experiment [2], the GI50 was found to be 3.09 µM and the median lethal concentration (LC50) is 4.77 µM. Besides, in experiment [3], the GI50 is 2.52 µM and the LC50 (NCI-60 lethal concentration, 50% net cell loss vs time zero) was determined as 4.75 µM.
For the compound `Cc1ccc(-c2nc(NC(=O)c3ccc([N+](=O)[O-])s3)sc2-c2ccc(Br)cc2)cc1` [Compound 6-2, N-(5-(4-bromophenyl)-4-(p-tolyl)thiazol-2-yl)-5-nitrothiophene-2-carboxamide], in experiment [2], the GI50 amounted to 1.27 µM and the LC50 is 1.94 µM. Besides, in experiment [3], the GI50 was determined as 0.97 µM and the LC50 (NCI-60 lethal concentration, 50% net cell loss vs time zero) is 2.72 µM.
On to `CC(C)(C)c1ccc(-c2nc(NC(=O)c3ccc([N+](=O)[O-])s3)sc2-c2cccc(Br)c2)cc1` [Compound 6-58, N-(5-(3-bromophenyl)-4-(4-(tert-butyl)phenyl)thiazol-2-yl)-5-nitrothiophene-2-carboxamide], for which the viability at 10 µM in experiment [4] (setting [7]) is 32%.
Same read-out and setting: to `CC(C)(C)c1ccc(-c2nc(NC(=O)c3ccc([N+](=O)[O-])s3)sc2Br)cc1` [Compound 6-60, N-(5-bromo-4-(4-(tert-butyl)phenyl)thiazol-2-yl)-5-nitrothiophene-2-carboxamide] belongs 45%.
